Key:
[1] = Cytotoxicity against human MRC5 cells assessed as inhibition of cell growth measured after 96 hrs by MTT assay; type: toxicity, cell-based
[2] = Selectivity index, ratio of IC50 for human MRC5 cells to IC50 for human A549 cells; type: toxicity; conditions: MRC5 cells and A549 cells, read-out: Ratio IC50
[3] = system: A549; experiment: cells; conditions: Homo sapiens, A549, 96 h
Description: Cytotoxicity against human A549 cells assessed as inhibition of cell growth measured after 96 hrs by MTT assay

[4] = system: A549; experiment: Cytotoxicity against human A549 cells assessed as inhibition of cell proliferation measured after 24 to 72 hrs by MTT assay; type: functional, cell-based; conditions: dose 0.125-2 µM, time 24-72 hrs, DDE = dose-dependent effect
[5] = system: A549; experiment: Induction of apoptosis in human A549 cells assessed as viable cells at 0.5 uM incubated for 48 hrs by Annexin V-FITC/propidium iodide staining based flow cytometry (reference value: 95.7%); type: functional; conditions: read-out: Activity
[6] = system: A549; experiment: Induction of apoptosis in human A549 cells assessed as late apoptotic cells at 0.5 uM incubated for 48 hrs by Annexin V-FITC/propidium iodide staining based flow cytometry (reference value: 0.82%); type: functional
[7] = system: A549; experiment: Induction of apoptosis in human A549 cells assessed as necrotic cells at 0.5 uM incubated for 48 hrs by Annexin V-FITC/propidium iodide staining based flow cytometry (reference value: 3.36%); type: functional
[8] = system: A549; experiment: Cytotoxicity against human A549 cells assessed as inhibition of cell proliferation at 0.125 to 2 uM by MTT assay; type: functional, cell-based; conditions: dose 0.125-2 µM, time 24-72 hrs, TDE = time-dependent effect
[9] = system: A549; experiment: Induction of apoptosis in human A549 cells assessed as early apoptotic cells at 0.5 uM incubated for 48 hrs by Annexin V-FITC/propidium iodide staining based flow cytometry (reference value: 0.11%); type: functional
[10] = system: A549; experiment: Potency index, ratio of celastrol IC50 to test compound IC50 for cytotoxicity against human A549 cells by MTT assay; type: functional

| SMILES | IC50 at 96 h [1] [nM] | selectivity ratio [2] | IC50 [3] [nM] | further results |
| --- | --- | --- | --- | --- |
| CC1=C(O)C(=O)C=C2C1=CC=C1[C@@]2(C)CC[C@@]2(C)[C@@H]3C[C@](C)(C(=O)N4CCN(C(=O)CN5C(=O)S/C(=C\C6CCCCC6)C5=O)CC4)CC[C@]3(C)CC[C@]12C | 3610 | 6.56 | 550 |  |
| COc1ccc(/C=C2\SC(=O)N(CC(=O)N3CCN(C(=O)[C@]4(C)CC[C@]5(C)CC[C@]6(C)C7=CC=C8C(=CC(=O)C(O)=C8C)[C@]7(C)CC[C@@]6(C)[C@@H]5C4)CC3)C2=O)cc1 | 2040 | 6.38 | 320 |  |
| CC1=C(O)C(=O)C=C2C1=CC=C1[C@@]2(C)CC[C@@]2(C)[C@@H]3C[C@](C)(C(=O)N4CCN(C(=O)CN5C(=O)S/C(=C\c6ccccc6)C5=O)CC4)CC[C@]3(C)CC[C@]12C | 2510 | 6.28 | 400 |  |
| CC1=C(O)C(=O)C=C2C1=CC=C1[C@@]2(C)CC[C@@]2(C)[C@@H]3C[C@](C)(C(=O)N4CCN(C(=O)CN5C(=O)S/C(=C\c6ccc(F)cc6)C5=O)CC4)CC[C@]3(C)CC[C@]12C | 2750 | 7.43 | 370 |  |
| CC1=C(O)C(=O)C=C2C1=CC=C1[C@@]2(C)CC[C@@]2(C)[C@@H]3C[C@](C)(C(=O)N4CCN(C(=O)CN5C(=O)S/C(=C\c6ccco6)C5=O)CC4)CC[C@]3(C)CC[C@]12C | 1050 | 6.18 | 170 |  |
| CCCC/C=C1\SC(=O)N(CC(=O)N2CCN(C(=O)[C@]3(C)CC[C@]4(C)CC[C@]5(C)C6=CC=C7C(=CC(=O)C(O)=C7C)[C@]6(C)CC[C@@]5(C)[C@@H]4C3)CC2)C1=O | 3440 | 10.8 | 320 |  |
| CC1=C(O)C(=O)C=C2C1=CC=C1[C@@]2(C)CC[C@@]2(C)[C@@H]3C[C@](C)(C(=O)N4CCN(C(=O)CN5C(=O)S/C(=C\c6ccc(Br)cc6)C5=O)CC4)CC[C@]3(C)CC[C@]12C | 3710 | 7.27 | 510 |  |
| CC1=C(O)C(=O)C=C2C1=CC=C1[C@@]2(C)CC[C@@]2(C)[C@@H]3C[C@](C)(C(=O)N4CCN(C(=O)CN5C(=O)S/C(=C\C6CCCC6)C5=O)CC4)CC[C@]3(C)CC[C@]12C | 3210 | 18.9 | 170 |  |
| CC1=C(O)C(=O)C=C2C1=CC=C1[C@@]2(C)CC[C@@]2(C)[C@@H]3C[C@](C)(C(=O)N4CCN(C(=O)CN5C(=O)S/C(=C\c6cccs6)C5=O)CC4)CC[C@]3(C)CC[C@]12C | 1270 | 3.53 | 360 |  |
| CC1=C(O)C(=O)C=C2C1=CC=C1[C@@]2(C)CC[C@@]2(C)[C@@H]3C[C@](C)(C(=O)O)CC[C@]3(C)CC[C@]12C [CELASTROL] | 4400 | 4 | 1100 | Activity [4]: Dde; viability at 0.5 µM [5]: 87.3%; Activity [6]: 6.97%; Activity [7]: 4.6%; Activity [8]: Tde; Activity [9]: 1.12% |
| CC1=C(O)C(=O)C=C2C1=CC=C1[C@@]2(C)CC[C@@]2(C)[C@@H]3C[C@](C)(C(=O)N4CCN(C(=O)CN5C(=O)S/C(=C\c6cccc(F)c6)C5=O)CC4)CC[C@]3(C)CC[C@]12C | 3180 | 7.95 | 400 |  |
| CC1=C(O)C(=O)C=C2C1=CC=C1[C@@]2(C)CC[C@@]2(C)[C@@H]3C[C@](C)(C(=O)N4CCN(C(=O)CN5C(=O)S/C(=C\c6cccc(C)c6)C5=O)CC4)CC[C@]3(C)CC[C@]12C | 3190 | 6.01 | 530 |  |
| CC1=C(O)C(=O)C=C2C1=CC=C1[C@@]2(C)CC[C@@]2(C)[C@@H]3C[C@](C)(C(=O)N4CCN(C(=O)CN5C(=O)S/C(=C\c6ccc7c(c6)OCO7)C5=O)CC4)CC[C@]3(C)CC[C@]12C | 4000 | 9.43 | 350 |  |
| CC1=C(O)C(=O)C=C2C1=CC=C1[C@@]2(C)CC[C@@]2(C)[C@@H]3C[C@](C)(C(=O)N4CCN(C(=O)CN5C(=O)S/C(=C\c6cccc(Cl)c6)C5=O)CC4)CC[C@]3(C)CC[C@]12C | 3160 | 6.58 | 480 |  |
| COc1cccc(/C=C2\SC(=O)N(CC(=O)N3CCN(C(=O)[C@]4(C)CC[C@]5(C)CC[C@]6(C)C7=CC=C8C(=CC(=O)C(O)=C8C)[C@]7(C)CC[C@@]6(C)[C@@H]5C4)CC3)C2=O)c1 | 2380 | 6.61 | 360 |  |
| CC1=C(O)C(=O)C=C2C1=CC=C1[C@@]2(C)CC[C@@]2(C)[C@@H]3C[C@](C)(C(=O)N4CCN(C(=O)CN5C(=O)CSC5=O)CC4)CC[C@]3(C)CC[C@]12C | 5700 | 3.68 | 1550 |  |
| CC1=C(O)C(=O)C=C2C1=CC=C1[C@@]2(C)CC[C@@]2(C)[C@@H]3C[C@](C)(C(=O)N4CCN(C(=O)CN5C(=O)S/C(=C\c6ccc(C)cc6)C5=O)CC4)CC[C@]3(C)CC[C@]12C | 2500 | 4.91 | 510 |  |
| CC1=C(O)C(=O)C=C2C1=CC=C1[C@@]2(C)CC[C@@]2(C)[C@@H]3C[C@](C)(C(=O)N4CCN(C(=O)CN5C(=O)S/C(=C\C(C)C)C5=O)CC4)CC[C@]3(C)CC[C@]12C | 2930 | 32.6 | 90 | Ratio IC50 [10]: 12.2 |
| CC1=C(O)C(=O)C=C2C1=CC=C1[C@@]2(C)CC[C@@]2(C)[C@@H]3C[C@](C)(C(=O)N4CCN(C(=O)CN5C(=O)S/C(=C\c6ccc(N(C)C)cc6)C5=O)CC4)CC[C@]3(C)CC[C@]12C | 4770 | 5.07 | 940 |  |
| CC1=C(O)C(=O)C=C2C1=CC=C1[C@@]2(C)CC[C@@]2(C)[C@@H]3C[C@](C)(C(=O)N4CCN(C(=O)CN5C(=O)S/C(=C\c6ccc(Cl)cc6)C5=O)CC4)CC[C@]3(C)CC[C@]12C | 3080 | 7.33 | 420 |  |
| CC1=C(O)C(=O)C=C2C1=CC=C1[C@@]2(C)CC[C@@]2(C)[C@@H]3C[C@](C)(C(=O)N4CCN(C(=O)CN5C(=O)S/C(=C\c6cccc(Br)c6)C5=O)CC4)CC[C@]3(C)CC[C@]12C | 4020 | 3.79 | 1060 |  |
